Measurements published in PubChem BioAssay (NCI).
“And” between values parts separate entries of the source, which are not always exact repeats. Equal entries are not always repeated.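 Where inhibition never reached the appropriate level, the endpoint shown equals the highest concentration tested. Otherwise, values were interpolated linearly from a five-concentration, 48-hour dose response in 96-well plates. GI50 = concentration required for 50% inhibition of growth. Definition used: TGI = concentration required for complete inhibition of growth.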

Key:
Assay in all cases: NCI-60 cell line screen, 48 h
[1] = tested on: HL-60(TB) leukemia
[2] = tested on: KM20L2 colon
[3] = tested on: NCI-H226 lung
[4] = tested on: UO-31 renal
[5] = tested on: OVCAR-5 ovarian
[6] = tested on: SW-620 colon
[7] = tested on: RPMI-8226 leukemia
[8] = tested on: NCI-H23 lung
[9] = tested on: M14 melanoma
[10] = tested on: TK-10 renal
[11] = tested on: SK-OV-3 ovarian
[12] = tested on: SF-295 CNS
[13] = tested on: KM12 colon
[14] = tested on: SR leukemia
[15] = tested on: HOP-18 NSCLC
[16] = tested on: NCI-H522 lung
[17] = tested on: OVCAR-3 ovarian
[18] = tested on: SK-MEL-2 melanoma
[19] = tested on: UACC-257 melanoma
[20] = tested on: SNB-78 CNS
[21] = tested on: HCT-15 colon
[22] = tested on: SNB-75 CNS
[23] = tested on: LOX IMVI melanoma
[24] = tested on: HOP-62 NSCLC
[25] = tested on: HCC-2998 colon
[26] = tested on: A549 NSCLC
[27] = tested on: HOP-92 NSCLC
[28] = tested on: MOLT-4 leukemia
[29] = tested on: UACC-62 melanoma
[30] = tested on: HT29 colon
[31] = tested on: SK-MEL-5 melanoma
[32] = tested on: NCI-H460 lung
[33] = tested on: SF-268 CNS
[34] = tested on: HCT-116 colon
[35] = tested on: MALME-3M melanoma
[36] = tested on: SK-MEL-28 melanoma
[37] = tested on: XF 498 CNS
[38] = tested on: DLD-1 colon
[39] = tested on: SNB-19 CNS
[40] = tested on: OVCAR-8 ovarian
[41] = tested on: ACHN renal
[42] = tested on: DMS 273 small cell lung
[43] = tested on: RXF 393 renal
[44] = tested on: OVCAR-4 ovarian
[45] = tested on: 786-0 renal
[46] = tested on: SF-539 CNS
[47] = tested on: CCRF-CEM leukemia
[48] = tested on: SN12C renal
[49] = tested on: CAKI-1 renal
[50] = tested on: K-562 leukemia
[51] = tested on: IGROV1 ovarian
[52] = tested on: LXFL 529 NSCLC
[53] = tested on: U251 CNS
[54] = tested on: DMS 114 small cell lung
[55] = tested on: COLO 205 colon
[56] = tested on: M19-MEL melanoma
[57] = tested on: EKVX NSCLC
[58] = tested on: A498 renal
[59] = tested on: RXF-631 renal

CC(=O)OCC1OC(n2c(-c3ccccc3)cc(-c3ccco3)c(C#N)c2=O)C(OC(C)=O)C(OC(C)=O)C1OC(C)=O (stereo not given)
TGI [1]: > 100 µM
GI50 [2]: 50.9 µM
TGI [2]: > 100 µM
TGI [3]: > 100 µM
GI50 [4]: > 100 µM and 21.2 µM
TGI [4]: > 100 µM and 67.6 µM
TGI [5]: > 100 µM
TGI [6]: > 100 µM
TGI [7]: > 100 µM
TGI [8]: > 100 µM
GI50 [9]: > 100 µM
TGI [9]: > 100 µM
TGI [10]: > 100 µM
TGI [11]: > 100 µM
TGI [12]: > 100 µM
GI50 [13]: 75 µM and 36.5 µM
TGI [13]: > 100 µM
GI50 [14]: > 100 µM and 46.1 µM
TGI [14]: > 100 µM
GI50 [15]: 28.2 µM
TGI [15]: 78.1 µM
TGI [16]: > 100 µM
TGI [17]: > 100 µM
TGI [18]: 36.9 µM and > 100 µM
TGI [19]: > 100 µM
TGI [20]: > 100 µM
GI50 [21]: > 100 µM and 18.3 µM
TGI [21]: > 100 µM
GI50 [22]: 13.3 µM and > 100 µM
TGI [22]: 40.9 µM and > 100 µM
GI50 [23]: 2.23 µM and 14.6 µM
TGI [23]: > 100 µM
GI50 [24]: > 100 µM and 22.1 µM
TGI [24]: > 100 µM and 65.4 µM
TGI [25]: > 100 µM
TGI [26]: > 100 µM
GI50 [27]: 9.2 µM and 50.8 µM
TGI [27]: 21.8 µM and > 100 µM
TGI [28]: > 100 µM
GI50 [29]: 23.3 µM and 55.8 µM
TGI [29]: > 100 µM
TGI [30]: > 100 µM
TGI [31]: > 100 µM
TGI [32]: > 100 µM
GI50 [33]: 17.4 µM and 35 µM
TGI [33]: 64.2 µM and > 100 µM
TGI [34]: > 100 µM
GI50 [35]: 23 µM and 85.9 µM
TGI [35]: > 100 µM
TGI [36]: 67 µM and > 100 µM
TGI [37]: 43.7 µM
GI50 [38]: > 53.1 µM and 25.8 µM
TGI [38]: > 100 µM
GI50 [39]: 90.5 µM and 36.3 µM
TGI [39]: > 100 µM
TGI [40]: > 100 µM
TGI [41]: > 100 µM
TGI [42]: > 100 µM
TGI [43]: > 100 µM
TGI [44]: > 100 µM
TGI [45]: > 100 µM
GI50 [46]: 16.3 µM and 84.6 µM
TGI [46]: > 100 µM
TGI [47]: > 100 µM
GI50 [48]: 77.2 µM and 23.5 µM
TGI [48]: > 100 µM
TGI [49]: > 100 µM
GI50 [50]: > 68.8 µM and 9.04 µM
TGI [50]: > 100 µM
TGI [51]: > 100 µM
TGI [52]: > 100 µM
GI50 [53]: 98 µM and 17.8 µM
TGI [53]: > 100 µM
TGI [54]: > 100 µM
GI50 [55]: > 31.6 µM and 87 µM
TGI [55]: > 100 µM
TGI [56]: > 100 µM
TGI [57]: > 100 µM
TGI [58]: > 100 µM

CCOC(=O)C(C)(C)Oc1ccc2c(=O)cc(-c3ccc(Cl)cc3)oc2c1
TGI [59]: > 100 µM
TGI [1]: > 100 µM
TGI [2]: > 100 µM
TGI [3]: > 100 µM
TGI [4]: > 100 µM
TGI [6]: > 100 µM
TGI [7]: > 100 µM
TGI [8]: > 100 µM
TGI [9]: > 100 µM
TGI [10]: > 100 µM
TGI [12]: > 100 µM
TGI [14]: > 100 µM
TGI [17]: > 100 µM
TGI [18]: > 100 µM
TGI [19]: > 100 µM
TGI [21]: > 100 µM
TGI [22]: > 100 µM
TGI [23]: > 100 µM
TGI [24]: > 100 µM
TGI [25]: > 100 µM
TGI [26]: > 100 µM
TGI [28]: > 100 µM
TGI [29]: > 100 µM
TGI [30]: > 100 µM
TGI [31]: > 100 µM
TGI [32]: > 100 µM
TGI [33]: > 100 µM
TGI [34]: > 100 µM
TGI [35]: > 100 µM
TGI [36]: > 100 µM
TGI [37]: > 100 µM
TGI [38]: > 100 µM
TGI [39]: > 100 µM
TGI [40]: > 100 µM
TGI [41]: > 100 µM
TGI [42]: > 100 µM
TGI [43]: > 100 µM
TGI [44]: > 100 µM
TGI [45]: > 100 µM
TGI [46]: > 100 µM
TGI [47]: > 100 µM
TGI [48]: > 100 µM
TGI [50]: > 100 µM
TGI [51]: > 100 µM
TGI [52]: > 100 µM
TGI [53]: > 100 µM
TGI [54]: > 100 µM
TGI [55]: > 100 µM
TGI [56]: > 100 µM
TGI [57]: > 100 µM
TGI [58]: > 100 µM
